# Experimental data taken from patent publication US8742110B2, “Spiroxazolidinone compounds” (Merck Sharp & Dohme Corp., priority 2010, dated 2014).
# Structures can show the parent of a compound that is named as a salt.
# Molecular target: SSTR5 (Homo sapiens (Human), UniProt P35346)
# Assay: SSTR5 binding assay
# Details: CHO-K1 membranes expressing cloned human SSTR5
# Procedure: The receptor-ligand binding assays of all 5 subtype of SSTRs were performed with membranes isolated from Chinese hamster ovary (CHO)-K1 cells stably expressing the cloned human somatostatin receptors in 96-well format as previous reported.
# The stable cell lines for SSTR1-SSTR5 were developed by stably transfecting with DNA for all five SSTRs using Lipofectamine. […] The assay buffer consisted of 50 mM TrisHCl (pH 7.8) with 1 mM EGTA, […] MgCl2, leupeptin (10 μg/mL), pepstatin (10 μg/mL), bacitracin (200 μg/mL), and aprotinin (0.5 μg/mL). CHO-K1 cell membranes, radiolabeled somatostatin, and unlabeled test compounds were resuspended or diluted in this assay buffer. Unlabeled test compounds were examined over a range of concentrations from 0.01 nM to 10,000 nM.
# Compounds exemplified were tested in the SSTR5 binding assay.
# Sequence of SSTR5 (P35346 whole entry): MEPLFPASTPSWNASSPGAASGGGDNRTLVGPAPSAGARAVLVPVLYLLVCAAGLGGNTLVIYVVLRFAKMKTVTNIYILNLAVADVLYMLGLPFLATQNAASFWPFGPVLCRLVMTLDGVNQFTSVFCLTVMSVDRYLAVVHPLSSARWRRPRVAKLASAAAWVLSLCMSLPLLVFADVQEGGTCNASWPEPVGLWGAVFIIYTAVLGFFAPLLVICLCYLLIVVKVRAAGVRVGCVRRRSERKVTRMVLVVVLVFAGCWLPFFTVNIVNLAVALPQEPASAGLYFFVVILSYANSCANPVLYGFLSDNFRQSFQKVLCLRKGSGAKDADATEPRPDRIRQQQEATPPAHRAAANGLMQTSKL
row,SMILES,IC50 [nM]
1,"CC(C)(C)n1cc(CN2CCC3(CC2)CN(c2ccc(C(=O)O)cc2)C(=O)O3)c(-c2ccc(F)c(Cl)c2)n1 [Example 1-28, 4-(8-{[1-tert-Butyl-3-(3-chloro-4-fluorophenyl)-1H-pyrazol-4-yl]methyl}-2-oxo-1-oxa-3,8-diazaspiro[4.5]dec-3-yl)benzoic acid, TFA salt]",0.421
2,"CC(C)(C)n1cc(CN2CCC3(CC2)CN(c2ccc(C(=O)O)cc2)C(=O)O3)c(-c2cc(F)c(F)cc2F)n1 [Example 1-7, 4-(8-{[1-tert-Butyl-3-(2,4,5-trifluorophenyl)-1H-pyrazol-4-yl]methyl}-2-oxo-1-oxa-3,8-diazaspiro[4.5]dec-3-yl)benzoic acid, TFA salt]",2.62
3,"CCOc1cc(CN2CCC3(CC2)CN(c2ccc(C(=O)O)cc2)C(=O)O3)cc2c(OC)cccc12 [Example 5-2, 4-{8-[(4-Ethoxy-8-methoxynaphthalen-2-yl)methyl]-2-oxo-1-oxa-3,8-diazaspiro[4.5]dec-3-yl}benzoic acid, TFA salt]",0.704
4,"CCCCn1nc(CN2CCC3(CC2)CN(c2ccc(C(=O)O)cc2)C(=O)O3)c2cc(F)ccc21 [Example 6-4, 4-{8-[(1-Butyl-5-fluoro-1H-indazol-3-yl)methyl]-2-oxo-1-oxa-3,8-diazaspiro[4.5]dec-3-yl}benzoic acid, TFA salt]",98.7
5,"CC(C)(C)n1cc(CN2CCC3(CC2)CN(c2ccc(C(=O)O)c(Cl)c2)C(=O)O3)c(-c2cc(F)c(Cl)cc2F)n1 [Example 1-13, 4-(8-{[1-tert-Butyl-3-(4-chloro-2,5-difluorophenyl)-1H-pyrazol-4-yl]methyl}-2-oxo-1-oxa-3,8-diazaspiro[4.5]dec-3-yl)-2-chlorobenzoic acid, TFA salt]",4.09
6,"O=C(O)c1ccc(N2CC3(CCN(Cc4cn(C5CCCCC5)nc4-c4ccc(C(F)(F)F)cc4)CC3)OC2=O)cc1 [Example 1-24, 4-[8-({1-Cyclohexyl-3-[4-(trifluoromethyl)phenyl]-1H-pyrazol-4-yl}methyl)-2-oxo-1-oxa-3,8-diazaspiro[4.5]dec-3-yl]benzoic acid, TFA salt]",2.01
7,"CCOc1cc(CN2CCC3(CC2)CN(c2ccc(C(=O)O)c(C)c2)C(=O)O3)c(-c2ccc(F)c(F)c2F)cc1C [Example 4-12, 4-{8-[(4-Ethoxy-2′,3′,4′-trifluoro-5-methylbiphenyl-2-yl)methyl]-2-oxo-1-oxa-3,8-diazaspiro[4.5]dec-3-yl}-2-methylbenzoic acid, TFA salt]",0.188
8,"O=C(O)c1ccc(N2CC3(CCN(Cc4cn(-c5ccc6ccccc6c5)nc4-c4ccc(F)c(F)c4F)CC3)OC2=O)cc1 [Example 1-26, 4-(8-{[1-(Naphthalen-2-yl)-3-(2,3,4-trifluorophenyl)-1H-pyrazol-4-yl]methyl}-2-oxo-1-oxa-3,8-diazaspiro[4.5]dec-3-yl)benzoic acid, TFA salt]",2.72
9,"CC(C)(C)n1nc(CN2CCC3(CC2)CN(c2ccc(C(=O)O)cc2)C(=O)O3)c2cc(Cl)c(F)cc21 [Example 6-17, 4-{8-[(1-tert-Butyl-5-chloro-6-fluoro-1H-indazol-3-yl)methyl]-2-oxo-1-oxa-3,8-diazaspiro[4.5]dec-3-yl}benzoic acid, TFA salt]",61.6
10,"O=C(O)c1ccc(N2CC3(CCN(Cc4c(-c5ccccc5)nc5ccccn45)CC3)OC2=O)cc1 [Example 6-37, 4-{2-Oxo-8-[(2-phenylimidazo[1,2-a]pyridin-3-yl)methyl]-1-oxa-3,8-diazaspiro[4.5]dec-3-yl}benzoic acid, TFA salt]",13.4
11,"O=C(O)c1ccc(N2CC3(CCN(Cc4n[nH]c5ccc(F)cc45)CC3)OC2=O)cc1 [Example 6-1, 4-{8-[(5-Fluoro-1H-indazol-3-yl)methyl]-2-oxo-1-oxa-3,8-diazaspiro[4.5]dec-3-yl}benzoic acid, TFA salt]",1170
12,"O=C(O)c1ccc(N2CC3(CCN(Cc4cc(OC(F)(F)F)ccc4-c4ccc(F)c(F)c4F)CC3)OC2=O)cc1 [Example 4-17, 4-(2-Oxo-8-{[2′,3′,4′-trifluoro-4-(trifluoromethoxy)biphenyl-2-yl]methyl}-1-oxa-3,8-diazaspiro[4.5]dec-3-yl)benzoic acid, TFA salt]",0.165
13,"COc1ccc(-c2nn(C3CC3)cc2CN2CCC3(CC2)CN(c2ccc(C(=O)O)cc2)C(=O)O3)cc1 [Example 1-4, 4-(8-{[1-Cyclopropyl-3-(4-methoxyphenyl)-1,1-pyrazol-4-yl]methyl}-2-oxo-1-oxa-3,8-diazaspiro[4.5]dec-3-yl)benzoic acid, TFA salt]",4.59
14,"O=C(O)c1ccc(N2CC3(CCN(Cc4cn(-c5ccccc5)nc4-c4ccc(F)c(Cl)c4)CC3)OC2=O)cc1 [Example 1-34, 4-(8-{[3-(3-Chloro-4-fluorophenyl)-1-phenyl-1H-pyrazol-4-yl]methyl}-2-oxo-1-oxa-3,8-diazaspiro[4.5]dec-3-yl)benzoic acid, TFA salt]",4.67
15,"CCOc1cc(CN2CCC3(CC2)CN(c2ccc(C(=O)O)c(C(F)(F)F)c2)C(=O)O3)cc(OCC)c1-c1ccc(F)cc1 [Example 3-15, 4-{8-[(2,6-Diethoxy-4′-fluorobiphenyl-4-yl)methyl]-2-oxo-1-oxa-3,8-diazaspiro[4.5]dec-3-yl}-2-(trifluoromethyl)benzoic acid, TFA salt]",2.79
16,"Cc1cc(CN2CCC3(CC2)CN(c2ccc(C(=O)O)cc2)C(=O)O3)cc2c1OCCC2C (stereo not shown) [Example 5-16, 4-{8-[(4,8-Dimethyl-3,4-dihydro-2H-chromen-6-yl)methyl]-2-oxo-1-oxa-3,8-diazaspiro[4.5]dec-3-yl}benzoic acid, TFA salt]",1.81
17,"O=C(O)c1ccc(N2CC3(CCN(Cc4cn(C5CCCCC5)nc4-c4ccc(OC(F)(F)F)cc4)CC3)OC2=O)cc1 [Example 1-23, 4-[8-({1-Cyclohexyl-3-[4-(trifluoromethoxy)phenyl]-1H-pyrazol-4-yl}methyl)-2-oxo-1-oxa-3,8-diazaspiro[4.5]dec-3-yl]benzoic acid, TFA salt]",2.26
18,"COc1ccc2c(CN3CCC4(CC3)CN(c3ccc(C(=O)O)cc3)C(=O)O4)cn(-c3ccccc3)c2c1 [Example 6-23, 4-{8-[(6-Methoxy-1-phenyl-1H-indol-3-yl)methyl]-2-oxo-1-oxa-3,8-diazaspiro[4.5]dec-3-yl}benzoic acid, TFA salt]",9.06
19,"Cc1cccn2c(-c3cc(F)c(F)cc3F)c(CN3CCC4(CC3)CN(c3ccc(C(=O)O)cc3)C(=O)O4)nc12 [Example 6-39, 4-(8-{[8-Methyl-3-(2,4,5-trifluorophenyl)imidazo[1,2-a]pyridin-2-yl]methyl}-2-oxo-1-oxa-3,8-diazaspiro[4.5]dec-3-yl)benzoic acid, TFA salt]",442
20,"CC1(C)C2CCC(C2)C1n1cc(CN2CCC3(CC2)CN(c2ccc(C(=O)O)cc2)C(=O)O3)c(-c2ccc(F)c(F)c2F)n1 (stereo not shown) [Example 1-25, 4-(8-{[1-(3,3-Dimethylbicyclo[2.2.1]hept-2-yl)-3-(2,3,4-trifluorophenyl)-1H-pyrazol-4-yl]methyl}-2-oxo-1-oxa-3,8-diazaspiro[4.5]dec-3-yl)benzoic acid, TFA salt]",0.74
21,"Cn1cc(-c2ccc(F)c(F)c2F)c(CN2CCC3(CC2)CN(c2ccc(C(=O)O)cc2)C(=O)O3)n1 [Example 2-1, 4-(8-{[1-Methyl-4-(2,3,4-trifluorophenyl)-1H-pyrazol-3-yl]methyl}-2-oxo-1-oxa-3,8-diazaspiro[4.5]dec-3-yl)benzoic acid, TFA salt]",2950
22,"Cc1cc(-c2cc(F)c(F)cc2F)c(CN2CCC3(CC2)CN(c2ccc(C(=O)O)cc2)C(=O)O3)cc1Cl [Example 4-24, 4-{8-[(4-Chloro-2′,4′,5′-trifluoro-5-methylbiphenyl-2-yl)methyl]-2-oxo-1-oxa-3,8-diazaspiro[4.5]dec-3-yl}benzoic acid, TFA salt]",1.13
23,"O=C(O)c1ccc(N2CC3(CCN(Cc4cn(C5CCCCC5)nc4-c4cccc(C(F)(F)F)c4)CC3)OC2=O)cc1 [Example 1-5, 4-[8-({1-Cyclohexyl-3-[3-(trifluoromethyl)phenyl]-1H-pyrazol-4-yl}methyl)-2-oxo-1-oxa-3,8-diazaspiro[4.5]dec-3-yl]benzoic acid, TFA salt]",1.53
24,"Cn1cc(-c2cc(F)c(F)cc2F)c(CN2CCC3(CC2)CN(c2ccc(C(=O)O)cc2)C(=O)O3)n1 [Example 2-2, 4-(8-{[1-Methyl-4-(2,4,5-trifluorophenyl)-1H-pyrazol-3-yl]methyl}-2-oxo-1-oxa-3,8-diazaspiro[4.5]dec-3-yl)benzoic acid, TFA salt]",4320
25,"COc1ccc2c(CN3CCC4(CC3)CN(c3ccc(C(=O)O)cc3)C(=O)O4)c[nH]c2c1 [Example 6-22, 4-{8-[(6-Methoxy-1H-indol-3-yl)methyl]-2-oxo-1-oxa-3,8-diazaspiro[4.5]dec-3-yl}benzoic acid, TFA salt]",8.64
26,"CCOc1cc(CN2CCC3(CC2)CN(c2ccc(-c4nn[nH]n4)cc2)C(=O)O3)cc(OCC)c1-c1ccc(F)cc1 [Example 3-12, 8-[(2,6-Diethoxy-4′-fluorobiphenyl-4-yl)methyl]-3-[4-(2H-tetrazol-5-yl)phenyl]-1-oxa-3,8-diazaspiro[4.5]decan-2-one, TFA salt]",0.323
27,"CCOc1cc(CN2CCC3(CC2)CN(c2cncc(O)c2)C(=O)O3)cc(OCC)c1-c1ccc(F)cc1 [Example 3-2, 8-[(2,6-Diethoxy-4′-fluorobiphenyl-4-yl)methyl]-3-(5-hydroxypyridin-3-yl)-1-oxa-3,8-diazaspiro[4.5]decan-2-one, TFA salt]",1.46
28,"CCCCn1nc(Cc2cc(F)c(F)cc2F)c(CN2CCC3(CC2)CN(c2ccc(C(=O)O)cc2)C(=O)O3)c1Cl [Example 1-44, 4-(8-{[5-Chloro-1-butyl-3-(2,4,5-trifluorobenzyl)-1H-pyrazol-4-yl]methyl}-2-oxo-1-oxa-3,8-diazaspiro[4.5]dec-3-yl)benzoic acid, TFA salt]",14.3
